The text below walks through data of ChEMBL document CHEMBL2029309, “Proposed Bioactive Conformations of Opiorphin, an Endogenous Dual APN/NEP Inhibitor” (ACS Med Chem Lett, 2012).

What is called IC50 is the point on the concentration scale where inhibition reaches its midpoint.

Peptide text beside a SMILES is read from it.

Test [1] has as its target T1, Aminopeptidase N (Homo sapiens, UniProt P15144). In words: Inhibition of human recombinant aminopeptidase N using Ala-Mca as substrate incubated for 10 mins prior to substrate addition measured for 40 mins by fluorometry.
The target in test [2] is T2, Neprilysin (Homo sapiens, UniProt P08473). In words: Inhibition of human recombinant neprilysin using Abz-dR-G-L-EDDnp as substrate incubated for 10 mins prior to substrate addition measured for 40 mins by fluorometry.
Test [3] has as its target T2, Neprilysin. In words: Inhibition of human neprilysin.
The target of test [4] is T1, Aminopeptidase N. In words: Inhibition of human aminopeptidase N.

T1 sequence (P15144 whole entry): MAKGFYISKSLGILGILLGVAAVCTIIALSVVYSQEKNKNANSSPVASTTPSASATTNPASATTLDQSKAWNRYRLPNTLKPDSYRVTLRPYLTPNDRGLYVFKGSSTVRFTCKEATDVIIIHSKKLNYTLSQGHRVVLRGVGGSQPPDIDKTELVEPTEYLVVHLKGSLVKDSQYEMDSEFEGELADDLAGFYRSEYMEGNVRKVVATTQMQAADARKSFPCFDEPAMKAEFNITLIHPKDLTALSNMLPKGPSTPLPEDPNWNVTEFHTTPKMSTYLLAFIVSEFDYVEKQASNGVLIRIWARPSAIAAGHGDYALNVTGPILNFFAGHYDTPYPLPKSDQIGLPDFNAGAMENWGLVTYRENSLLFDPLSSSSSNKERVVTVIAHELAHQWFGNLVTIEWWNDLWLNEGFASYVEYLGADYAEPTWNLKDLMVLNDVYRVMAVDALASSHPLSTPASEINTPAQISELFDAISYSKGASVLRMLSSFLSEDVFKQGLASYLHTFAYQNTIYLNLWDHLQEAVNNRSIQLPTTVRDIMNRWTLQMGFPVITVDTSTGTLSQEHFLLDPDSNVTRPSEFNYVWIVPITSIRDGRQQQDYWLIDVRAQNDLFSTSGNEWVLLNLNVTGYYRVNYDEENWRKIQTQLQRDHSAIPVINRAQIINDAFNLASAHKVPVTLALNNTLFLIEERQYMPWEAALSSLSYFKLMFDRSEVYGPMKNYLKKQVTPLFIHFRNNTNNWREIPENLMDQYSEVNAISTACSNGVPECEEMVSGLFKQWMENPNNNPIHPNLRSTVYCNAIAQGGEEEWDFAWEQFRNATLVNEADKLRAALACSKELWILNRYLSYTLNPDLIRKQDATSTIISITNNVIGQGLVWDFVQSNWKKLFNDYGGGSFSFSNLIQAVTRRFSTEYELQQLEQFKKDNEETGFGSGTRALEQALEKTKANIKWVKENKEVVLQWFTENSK
T2 sequence (P08473 whole entry): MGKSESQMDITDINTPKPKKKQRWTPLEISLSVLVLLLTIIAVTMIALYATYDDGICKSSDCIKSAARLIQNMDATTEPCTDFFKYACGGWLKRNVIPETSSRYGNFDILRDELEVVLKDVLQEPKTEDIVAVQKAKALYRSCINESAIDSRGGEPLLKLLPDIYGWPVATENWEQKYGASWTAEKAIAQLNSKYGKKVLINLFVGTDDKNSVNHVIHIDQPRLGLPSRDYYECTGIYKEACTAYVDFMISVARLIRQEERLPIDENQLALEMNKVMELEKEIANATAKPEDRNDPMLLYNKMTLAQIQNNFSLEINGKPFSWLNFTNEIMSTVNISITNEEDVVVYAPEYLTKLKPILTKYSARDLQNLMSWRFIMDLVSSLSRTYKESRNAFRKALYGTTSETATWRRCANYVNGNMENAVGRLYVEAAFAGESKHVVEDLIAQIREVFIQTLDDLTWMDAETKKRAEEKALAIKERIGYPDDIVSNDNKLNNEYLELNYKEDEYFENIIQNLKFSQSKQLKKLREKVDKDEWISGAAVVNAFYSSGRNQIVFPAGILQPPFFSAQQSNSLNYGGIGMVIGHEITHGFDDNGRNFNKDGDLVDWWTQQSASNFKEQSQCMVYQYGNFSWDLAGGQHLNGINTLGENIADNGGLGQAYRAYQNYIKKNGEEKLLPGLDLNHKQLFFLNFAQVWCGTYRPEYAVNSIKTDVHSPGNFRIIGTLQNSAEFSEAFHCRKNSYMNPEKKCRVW

Take H-NRFSR-OH: the values for the IC50 on Aminopeptidase N [1] and at Neprilysin [2] were more than 100 µM and 130 µM, respectively.

For the molecule `N=C(N)NCCC[C@H](NC(=O)[C@H](CO)NC(=O)[C@H](Cc1ccccc1)NC(=O)[C@@H](N)CCCNC(=N)N)C(=O)O` [OPIORPHIN (2-5)] (H-RFSR-OH), on Neprilysin [3], the IC50 turned out to be 180 µM.

In turn, `N=C(N)NCCC[C@H](NC(=O)[C@@H](N)CCC(N)=O)C(=O)N[C@@H](Cc1ccccc1)C(=O)N[C@@H](CO)C(=O)O` [OPIORPHIN (1-4)] (H-QRFS-OH) gave an IC50 against Neprilysin [3] of more than 100 µM.

Take H-FQRFSR-OH: the IC50 was found to be 122 µM on Aminopeptidase N [1] and 51 µM at Neprilysin [2].

On to `NC(N)=NCCC[C@H](NC(=O)[C@H](CO)NC(=O)[C@@H](N)Cc1ccccc1)C(=O)O` [OPIORPHIN (3-5)] (H-Phe-Ser-Arg-OH), for which the results for the concentration for half-maximal inhibition (IC50) on Neprilysin [3] and at Aminopeptidase N [4] were 7 µM and 120 µM, respectively.

Consider H-QRFTR-OH, for which the half-maximal inhibitory concentration (IC50) on Aminopeptidase N [1] and on Neprilysin [2] was more than 100 µM each time.
